Results reported in ChEMBL document CHEMBL4330125, “Fluoromethylcyclopropylamine derivatives as potential in vivo toxicophores - A cautionary disclosure” (Bioorg Med Chem Lett, 2019).

Assays:
Settings in all cases: in vivo
[1] = Toxicity in CD-1 mouse at 5 mg/kg, po administered as single dose via gavage; format: organism-based
[2] = Toxicity in CD-1 mouse assessed as ataxia at 5 mg/kg, po administered as single dose via gavage measured after 5 hrs; format: organism-based
[3] = Ratio of fCmax in CD-1 mouse at 10 mg/kg, po to IC50 for PARG in human HeLa cells; format: ADME, organism-based
[4] = Hepatotoxicity in CD-1 mouse assessed as appearance of pale yellow color organ at 10 mg/kg, po administered as single dose via gavage measured after 24 hrs; format: toxicity, organism-based
[5] = Hepatotoxicity in CD-1 mouse assessed as appearance of mottled organ at 10 mg/kg, po administered as single dose via gavage measured after 24 hrs; format: toxicity, organism-based
[6] = Toxicity in CD-1 mouse assessed as gastrointestinal bleeding at 10 mg/kg, po administered as single dose via gavage measured after 24 hrs; format: organism-based
[7] = Toxicity in CD-1 mouse at 160 mg/kg, po administered as single dose via gavage; format: organism-based

SMILES	Activity [1]	Activity [2]	other results
Cn1cc(Cn2c(=O)c3cc(S(=O)(=O)NC4(C)CC4)ccc3n(C)c2=O)cn1	Non-Toxic	Toxic	
CCn1c(=O)n(Cc2cnn(C)c2)c(=O)c2cc(S(=O)(=O)NC3(CF)CC3)ccc21	Non-Toxic	Toxic	Ratio [3]: Nd(Toxic); Activity [4]: Toxic; Activity [5]: Toxic; Activity [6]: Toxic
CCn1c(=O)n(Cc2cc(C)on2)c(=O)c2cc(S(=O)(=O)NC3(CF)CC3)ccc21		Toxic	
Cn1cc(Cn2c(=O)c3cc(S(=O)(=O)NC4(C)CC4)ccc3n(Cc3ccn(C)n3)c2=O)cn1	Non-Toxic		Activity [7]: Non-Toxic
Cn1cc(Cn2c(=O)c3cc(S(=O)(=O)NC4(CF)CC4)ccc3n(C)c2=O)cn1		Toxic	
CCn1c(=O)n(Cc2cnn(C)c2)c(=O)c2cc(S(=O)(=O)NC3(C)CC3)ccc21	Non-Toxic	Toxic	
Cn1cc(Cn2c(=O)c3cc(S(=O)(=O)NC4(CF)CC4)ccc3n(Cc3ccn(C)n3)c2=O)cn1	Non-Toxic		
